Measured values: article PMC9403987 (Frontiers in Oncology, 2022)

How the values were obtained:
Assay in all cases: Cell proliferation assay
Format in all cases: cell-based, Homo sapiens
A172 = details: A172, brain, glioblastoma, 72 hours
Experimental: (§1) To quantify cell proliferation, either the nuclei of live cells were counted following staining with 4’,6-diamidino-2-phenylindole (DAPI; Sigma-Aldrich, Burlington, MA, USA), or metabolically active cells were detected using a CellTiter-Glo assay (Promega Corporation, Madison, WI, USA). Cells from a range of human and mammalian tumor cell lines (American Type Culture Collection, Manassas, VA, USA) were seeded at 4000 cells per well in 100 μL of culture medium in a 96-well plate and incubated overnight at 37°C with 5% CO2. […] In the DAPI staining method, cells were washed using 1× phosphate-buffered saline (PBS; Gibco Thermo Fisher Scientific, Waltham, MA, USA), fixed with 4% formaldehyde, permeabilized with 0.2% Triton X-100 (Sigma-Aldrich), washed again, and stained with 1 μg/mL DAPI to visualize cell nuclei. Cells were washed with 1× PBS three times, and 100 μL 1× PBS was added to each well. Plates were scanned using an IN Cell Analyzer 2200 (GE Healthcare Life Sciences, Chicago, IL, USA) and the number of cells per well was recorded. In the CellTiter-Glo assay, 60 μL of CellTiter-Glo luminescent solution was added to each well after incubation with the test compounds, and the assay plate was scanned using a Tecan Infinite M1000 PRO microplate reader (Tecan Group AG, Männedorf, Switzerland) to record luminescent signals.

CHP-212 = details: CHP-212, brain, neuroblastoma, 72 hours
Experimental: as §1

COLO 205 = details: COLO 205, colon carcinoma, 72 hours
Experimental: as §1

Daoy = details: brain, desmoplastic cerebellar medulloblastoma, 72 hours
Experimental: as §1

Du4475 = details: Du4475, breast carcinoma, 72 hours
Experimental: as §1

HCCLM3 = details: HCCLM3, liver, hepatocellular carcinoma, 72 hours
Experimental: as §1

HL7702 = details: HL7702, liver, 72 hours
Experimental: as §1

HT29 = details: HT29, colon carcinoma, 72 hours
Experimental: as §1

HTC116 = details: HTC116, colorectal carcinoma, 72 hours
Experimental: as §1

Huh-7 = details: Huh-7, liver, hepatocellular carcinoma, 72 hours
Experimental: as §1

KNS-81 = details: KNS-81, brain, glioblastoma, 72 hours
Experimental: as §1

KP-N-YN = details: neural, neuroblastoma, 72 hours
Experimental: as §1

Li-7 = details: Li-7, liver, hepatocellular carcinoma, 72 hours
Experimental: as §1

LoVo = details: colorectal carcinoma, 72 hours
Experimental: as §1

M059K = details: brain, glioblastoma, 72 hours
Experimental: as §1

MHCC97H = details: liver, hepatocellular carcinoma, 72 hours
Experimental: as §1

MHCC97 = details: MHCC97, liver, hepatocellular carcinoma, 72 hours
Experimental: as §1

NCI-H1155 = details: NCI-H1155, lung, NSCLC, 72 hours
Experimental: as §1

NCI-H1792 = details: NCI-H1792, lung carcinoma, 72 hours
Experimental: as §1

NCI-H1915 = details: NCI-H1915, lung, NSCLC, 72 hours
Experimental: as §1

NCI-H1975 = details: NCI-H1975, lung, NSCLC, 72 hours
Experimental: as §1

NCI-H23 = details: NCI-H23, lung, NSCLC, 72 hours
Experimental: as §1

NCI-H292 = details: NCI-H292, lung, mucoepidermoid pulmonary carcinoma, 72 hours
Experimental: as §1

NCI-H358 = details: NCI-H358, lung, NSCLC, 72 hours
Experimental: as §1

NCI-H441 = details: NCI-H441, lung carcinoma, 72 hours
Experimental: as §1

NCI-H460 = details: NCI-H460, lung carcinoma, 72 hours
Experimental: as §1

SNU-368 = details: SNU-368, liver, hepatocellular carcinoma, 72 hours
Experimental: as §1

SNU-739 = details: SNU-739, liver, hepatocellular carcinoma, 72 hours
Experimental: as §1

SNU-761 = details: SNU-761, lung carcinoma, 72 hours
Experimental: as §1

SW1088 = details: SW1088, brain, grade II astrocytoma, 72 hours
Experimental: as §1

SW620 = details: SW620, colon carcinoma, 72 hours
Experimental: as §1

T98G = details: brain, glioblastoma, 72 hours
Experimental: as §1

U118-MG = details: brain, glioblastoma, 72 hours
Experimental: as §1

U251 = details: U251, brain, glioblastoma, 72 hours
Experimental: as §1

CCN1CCN(Cc2ccc(Nc3ncc(F)c(-c4cc(F)c5nc(C)n(C(C)C)c5c4)n3)nc2)CC1 [Abemaciclib, abemaciclib, reference compound]
IC50 (A172; Homo sapiens, A 172): 112 nM
IC50 (CHP-212; Homo sapiens): 32 nM
IC50 (COLO 205; Homo sapiens): 432 nM
IC50 (Daoy; Homo sapiens): > 10 µM
IC50 (Du4475; Homo sapiens, DU-4475): 10 µM
IC50 (HCCLM3; Homo sapiens): 3100 nM
IC50 (HL7702; Homo sapiens, L02): 1720 nM
IC50 (HT29; Homo sapiens, HT-29): 1840 nM
IC50 (HTC116; Homo sapiens): 76 nM
IC50 (Huh-7; Homo sapiens): 75 nM
IC50 (KNS-81; Homo sapiens): 106 nM
IC50 (KP-N-YN; Homo sapiens): 827 nM
IC50 (Li-7; Homo sapiens): 6.29 µM
IC50 (LoVo; Homo sapiens): 25 nM
IC50 (M059K; Homo sapiens): 871 nM
IC50 (MHCC97H; Homo sapiens): 137 nM
IC50 (MHCC97; Homo sapiens): 1100 nM
IC50 (NCI-H1155; Homo sapiens): 2410 nM
IC50 (NCI-H1792; Homo sapiens): 23 nM
IC50 (NCI-H1915; Homo sapiens): 324 nM
IC50 (NCI-H1975; Homo sapiens): 112 nM
IC50 (NCI-H23; Homo sapiens): 904 nM
IC50 (NCI-H292; Homo sapiens): 149 nM
IC50 (NCI-H358; Homo sapiens): 44 nM
IC50 (NCI-H441; Homo sapiens): 40 nM
IC50 (NCI-H460; Homo sapiens): 654 nM
IC50 (SNU-368; Homo sapiens): 34 nM
IC50 (SNU-739; Homo sapiens): 383 nM
IC50 (SNU-761; Homo sapiens): 54 nM
IC50 (SW1088; Homo sapiens): 471 nM
IC50 (SW620; Homo sapiens, SW-620): 10 nM
IC50 (T98G; Homo sapiens): 168 nM
IC50 (U118-MG; Homo sapiens, U-118-MG): 86 nM
IC50 (U251; Homo sapiens, U-251): 151 nM

CC1=Nc2c(F)cc(-c3nc(Nc4ccc(C5CCN(C)CC5)cn4)ncc3F)cc2C12CCCC2 [GLR2007]
IC50 (A172): 41 nM
IC50 (CHP-212): 18 nM
IC50 (COLO 205): 194 nM
IC50 (Daoy): 3.96 µM
IC50 (Du4475): 2.04 µM
IC50 (HCCLM3): 1840 nM
IC50 (HL7702): 1940 nM
IC50 (HT29): 601 nM
IC50 (HTC116): 38 nM
IC50 (Huh-7): 43 nM
IC50 (KNS-81): 33 nM
IC50 (KP-N-YN): 657 nM
IC50 (Li-7): 0.712 µM
IC50 (LoVo): 13 nM
IC50 (M059K): 3250 nM
IC50 (MHCC97H): 66 nM
IC50 (MHCC97): 353 nM
IC50 (NCI-H1155): 1820 nM
IC50 (NCI-H1792): 3 nM
IC50 (NCI-H1915): 53 nM
IC50 (NCI-H1975): 10 nM
IC50 (NCI-H23): 243 nM
IC50 (NCI-H292): 73 nM
IC50 (NCI-H358): 17 nM
IC50 (NCI-H441): 7 nM
IC50 (NCI-H460): 235 nM
IC50 (SNU-368): 13 nM
IC50 (SNU-739): 100 nM
IC50 (SNU-761): 8 nM
IC50 (SW1088): 143 nM
IC50 (SW620): 10 nM
IC50 (T98G): 110 nM
IC50 (U118-MG): 23 nM
IC50 (U251): 53 nM
